Holding throughout (experiment): NCI tumour cell line growth inhibition, 48 h
The subject of assay [1] is KM12 colon.
Assay [2] concerns SNB-75 CNS.
Assay [3] deals with SW-620 colon.
Assay [4] relates to HT29 colon.
Assay [5] concerns T-47D breast.
Assay [6] relates to NCI/ADR-RES ovarian.
In assay [7] the test system is OVCAR-3 ovarian.
Assay [8] relates to NCI-H460 lung.
Assay [9] concerns SN12C renal.
In assay [10] the test system is 786-0 renal.
Assay [11] deals with OVCAR-8 ovarian.
For assay [12], the system named is SF-295 CNS.
For assay [13], the system named is SK-MEL-28 melanoma.
The test system of assay [14] is SF-268 CNS.
The subject of assay [15] is NCI-H23 lung.
The test system of assay [16] is HOP-92 NSCLC.
The test system of assay [17] is HL-60(TB) leukemia.
The test system of assay [18] is RXF 393 renal.
Assay [19] deals with NCI-H522 lung.

The record followed here is PubChem BioAssay (NCI).

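Where inhibition never reached the appropriate level, the endpoint shown equals the highest concentration tested. Otherwise, values were interpolated linearly from a five-concentration, 48-hour dose response in 96-well plates. TGI: total growth inhibition.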

Consider `CN(C)CCNC(=O)c1cccc2c(NC(CS)C(=O)O)c3ccccc3[n+](C)c12` (configuration not stated), for which the TGI was over 100 µM in assay [1]; over 100 µM in [2]; over 100 µM in assay [3]; over 100 µM in [4]; over 100 µM in assay [5]; 93.2 µM in [6]. For the same molecule, the TGI in assay [7], in assay [8], in [9], in assay [10], in assay [11] and in [12] was over 100 µM each time. For the same molecule, the TGI in [13] was over 100 µM; in assay [14] it was 80.8 µM; in assay [15], over 100 µM.

On to `COc1ccc(-c2c3c(n(C4OC(COC(C)=O)C(OC(C)=O)C(OC(C)=O)C4OC(C)=O)c(=S)c2C#N)CCC3)cc1` (configuration not stated), for which the TGI in [1] is over 100 µM; in [16], 49.3 µM; in assay [2] it was over 100 µM; in assay [3] it was over 100 µM; in assay [4], over 100 µM; in assay [17] it was over 100 µM. For the same molecule, the TGI in assay [6], in assay [7], in assay [8], in assay [9], in [10] and in [12] was over 100 µM in each case. The TGI in assay [13], in assay [14], in [18] and in assay [15] was over 100 µM each time.

Turning to `CCOC(=O)C1(C(=O)OCC)C[C@@H](C)[C@@H](O)C1`, the TGI in assay [1], in assay [16], in [2], in assay [3], in [4] and in [17] was over 100 µM throughout. Further, the TGI in assay [6], in assay [19], in assay [7], in assay [8], in assay [9] and in assay [10] was over 100 µM throughout. The TGI in assay [11], in [12], in [13], in assay [14], in [18] and in [15] was over 100 µM in each case.

Regarding `O=c1cc(CSc2c(-c3ccccc3)c(=O)n(-c3ccccc3)c(=S)n2-c2ccccc2)[nH]c(=O)[nH]1`, the TGI in assay [1], in [2], in [3], in assay [4], in assay [17] and in assay [5] was over 100 µM throughout. The TGI in [6], in assay [7], in assay [8], in [9], in assay [10] and in assay [11] was over 100 µM each time. Further, the TGI in [13], in assay [14] and in [18] was over 100 µM each time.

Take `C/C=C1\CC2C(=O)CCC2C2c3ccccc3OC12` (configuration not stated): the TGI in assay [1], in assay [16], in [2], in assay [3], in assay [4] and in assay [17] was over 100 µM each time. Also, the TGI in assay [6] is over 100 µM; in [19], over 100 µM; in assay [7], over 100 µM; in assay [8], over 100 µM; in assay [9], 0.821 µM; in assay [10], over 100 µM. For the same molecule, the TGI in [11], in assay [12], in assay [13], in assay [14], in [18] and in [15] was over 100 µM each time.

`COc1ccc2nc3c([N+](=O)[O-])ccc(NCCCN(C)C)c3c(NCCCN(C)C)c2c1`: the TGI in assay [1] was 2.54 µM; in assay [16], over 10 µM; in assay [2], 3.49 µM; in assay [3] it was 6.22 µM; in assay [4] it was 2.56 µM; in assay [17], 8.81 µM. In addition, the TGI is over 10 µM in [5]; 2.63 µM in assay [9]; 2.13 µM in assay [10]; 2.9 µM in [11]; 3.01 µM in assay [12]; 3.42 µM in assay [13]. Moreover, the TGI in [14] was over 10 µM; in assay [18] it was 2.02 µM; in assay [15] it was 3.46 µM.

As for `Nc1ccc(Oc2ccc(C3(c4ccc(Oc5ccc(N)cc5)cc4)C4CC5CC(C4)CC3C5)cc2)cc1`, the TGI in assay [1] is 17.7 µM; in assay [16] it was 35.9 µM; in assay [2], over 100 µM; in assay [3] it was over 66.5 µM; in assay [4], 24.7 µM; in assay [17] it was 44.3 µM. In addition, the TGI in assay [6] is over 100 µM; in [19], over 59.7 µM; in assay [7] it was 9.78 µM; in assay [8], over 100 µM; in assay [9], 21.9 µM; in assay [10] it was 19.1 µM. In addition, the TGI in [11] is over 48.9 µM; in assay [12] it was 73.8 µM; in assay [13], over 77.9 µM; in assay [14], over 95.3 µM; in assay [18] it was 20.9 µM; in [15], over 48.3 µM.

Take `O=C(CCCN1CCC(Nc2ccccc2)(c2nnnn2C2CCCCC2)CC1)c1ccc(F)cc1`: the TGI in [1] was 21.5 µM; in [2], 21.9 µM; in assay [3] it was over 100 µM; in [4], 14.6 µM; in assay [17] it was 29.6 µM; in assay [6], over 100 µM. For the same molecule, the TGI in assay [19] came out at 19.3 µM; in assay [7], 24 µM; in assay [8] it was 35 µM; in assay [9], 41 µM; in assay [10] it was 15.9 µM; in assay [11], 68.3 µM. Also, the TGI in [12] was 41.8 µM; in assay [13], 12.3 µM; in assay [14], 9.25 µM; in assay [18], 22.4 µM; in assay [15] it was 28.8 µM.
